These results are taken from US20210238170A1, “5,5-Difluoro- and 5-Fluoro-5-Methyl-C-Glycoside Derivatives Useful As Dual SGLT1 / SGLT2 Modulators” (Janssen Pharmaceutica NV, priority 2018, published 2021).

One assay addresses T1, human SGLT1 (Homo sapiens, UniProt P13866).
T1 construct: expressed in transfected cells
T1 sequence (P13866 1-664): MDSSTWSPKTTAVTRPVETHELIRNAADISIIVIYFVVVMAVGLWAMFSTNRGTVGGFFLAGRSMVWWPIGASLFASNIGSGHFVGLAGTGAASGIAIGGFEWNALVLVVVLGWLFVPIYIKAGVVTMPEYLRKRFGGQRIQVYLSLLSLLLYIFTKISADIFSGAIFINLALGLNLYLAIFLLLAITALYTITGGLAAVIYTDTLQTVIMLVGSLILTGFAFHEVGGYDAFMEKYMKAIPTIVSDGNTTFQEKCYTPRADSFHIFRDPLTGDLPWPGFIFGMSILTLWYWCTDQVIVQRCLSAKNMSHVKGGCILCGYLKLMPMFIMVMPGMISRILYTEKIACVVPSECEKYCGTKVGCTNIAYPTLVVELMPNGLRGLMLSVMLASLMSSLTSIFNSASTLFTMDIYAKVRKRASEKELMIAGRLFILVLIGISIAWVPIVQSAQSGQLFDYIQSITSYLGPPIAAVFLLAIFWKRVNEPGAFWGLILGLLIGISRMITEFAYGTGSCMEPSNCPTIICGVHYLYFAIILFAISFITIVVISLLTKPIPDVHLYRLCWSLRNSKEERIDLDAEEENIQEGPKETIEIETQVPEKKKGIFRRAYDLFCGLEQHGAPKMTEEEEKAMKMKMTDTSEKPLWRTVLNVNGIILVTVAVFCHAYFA
The assay can be described thus: SGLT1 in vitro assay: Na-dependent 14C-AMG uptake in CHO-K1 cells stably expressing human SGLT1. Format: cell-based. The conditions noted are these: for inhibition at 0.3 µM: read-out: SGLT1 % Inh @ 0.3 μM. Put shortly:
(§1)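 Sodium-dependent uptake of 14C-α-methyl-glucopyranoside ([…]) over 2 h at 37°C was counted by scintillation in stable human SGLT2- or SGLT1-CHO-K1 lines pretreated with 10 mM Na-butyrate. Compounds at 0.001–10 μM were preincubated for 10 min in pH 7.4 buffer with 137 mM NaCl; output is %-inhibition or IC50.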

The target in another assay is T2, human SGLT2 (Homo sapiens, UniProt P31639).
T2 construct: expressed in transfected cells
T2 sequence (P31639 1-672): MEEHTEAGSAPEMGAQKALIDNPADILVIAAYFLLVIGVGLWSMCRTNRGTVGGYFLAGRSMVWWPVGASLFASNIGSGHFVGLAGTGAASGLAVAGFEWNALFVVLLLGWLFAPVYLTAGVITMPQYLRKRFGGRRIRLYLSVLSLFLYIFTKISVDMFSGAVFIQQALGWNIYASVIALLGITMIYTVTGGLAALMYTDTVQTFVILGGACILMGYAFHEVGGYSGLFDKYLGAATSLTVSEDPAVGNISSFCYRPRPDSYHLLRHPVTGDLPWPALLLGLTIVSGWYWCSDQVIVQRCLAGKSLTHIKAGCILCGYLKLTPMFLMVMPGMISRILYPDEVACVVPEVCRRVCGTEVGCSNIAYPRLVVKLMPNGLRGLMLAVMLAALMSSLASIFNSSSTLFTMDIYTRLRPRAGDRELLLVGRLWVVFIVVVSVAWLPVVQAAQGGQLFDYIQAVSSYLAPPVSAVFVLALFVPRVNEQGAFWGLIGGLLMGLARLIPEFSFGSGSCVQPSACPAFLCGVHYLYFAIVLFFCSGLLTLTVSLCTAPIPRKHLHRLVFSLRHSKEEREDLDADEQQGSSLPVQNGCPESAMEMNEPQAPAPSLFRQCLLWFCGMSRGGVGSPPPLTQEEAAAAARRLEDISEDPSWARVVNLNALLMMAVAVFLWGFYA
As to the kind of experiment: SGLT2 in vitro assay: Na-dependent 14C-AMG uptake in CHO-K1 cells stably expressing human SGLT2. Format: cell-based. The note with it: for inhibition at 0.3 µM: read-out: SGLT2 % Inh @ 0.3 μM. Put shortly: as §1

For the next assay, the system named is SD rats. As to the kind of experiment: Oral Glucose Tolerance Test (OGTT) in SD rats: blood glucose excursion AUC and urine glucose excretion. It is filed as in vivo, rat. The note with it: mean ± SE; for Urine Glucose Excretion (g/0-4 hr): n = 8. The protocol:
Biological Example 2: In Vivo Assay
Oral Glucose Tolerance Test (OGTT) in SD Rats
Overnight fasted SD rats were allocated into vehicle or test compound treatment groups based on their body weights (n=8 in each group). The animals were orally dosed with vehicle or test compound at a volume of 10 ml/kg at 30-minute prior to OGTT. The animals then received an OGTT challenge with 2 g/kg (50% glucose solution at the volume of 4 ml/kg, orally). The animals were immediately transferred into metabolic cages after they were dosed with the glucose. Blood glucose levels were measured at 0 (pre-OGTT), 30, 60, and 120 minutes after OGTT using one-touch Glucometer. Blood glucose excursion AUC (area under the curve of blood glucose) was determined from the blood glucose levels measured at the timepoints.
Table 9 below, presents the measured efficacy of the test compound(s), expressed as the percentage (%) of blood glucose AUC vs that in vehicle group. The data is interpreted such that, the smaller the percentage of blood glucose AUC of compound vs vehicle, the greater the efficacy of the test compound. Urine volume and urine glucose concentrations (tested by using Olympus system with Genzyme diagnostics assay reagent) were measured to determine the urine glucose excretion (UGE) in 4-hr period after OGTT (0-4 hours).

The mark [1] stands for this setting: @ 0.3 μM, CHO-K1 cells stably expressing human SGLT1, 14C-AMG uptake.
Where [2] appears, read: CHO-K1 cells stably expressing human SGLT1, 14C-AMG uptake, compounds of formula (I) where R0 is fluoro.
Where [3] appears, read: @ 0.3 μM, CHO-K1 cells stably expressing human SGLT2, 14C-AMG uptake.
[4] abbreviates: CHO-K1 cells stably expressing human SGLT2, 14C-AMG uptake, compounds of formula (I) where R0 is fluoro.
The mark [5] stands for this setting: Rattus norvegicus, 2 h, oral dose 1 mg/kg, n = 8, read-out: 120-min Blood Glucose AUC vs Vehicle (%).
Setting [6] is: Rattus norvegicus, 2 h, oral dose 10 mg/kg, n = 8, read-out: 120-min Blood Glucose AUC vs Vehicle (%).
[7] abbreviates: 0.3 μM, CHO-K1 cells expressing human SGLT1.
Where [8] appears, read: CHO-K1 cells expressing human SGLT1, 14C-AMG uptake.
Where [9] appears, read: 0.3 μM, CHO-K1 cells expressing human SGLT2.
Where [10] appears, read: CHO-K1 cells expressing human SGLT2, 14C-AMG uptake.

Each structure is given as a SMILES string. Like-named read-outs stand apart in the source and are kept apart here.

As usually defined, the IC50 is the midpoint of a concentration-inhibition curve. A high value points to weaker potency. For the compound `COc1ccc(Cc2cc([C@@H]3O[C@H](CO)C(F)(F)[C@H](O)[C@H]3O)c(O)cc2OC)cc1` [Compound 91, (2S,3R,4R,6R)-5,5-difluoro-2-(2-hydroxy-4-methoxy-5-(4-methoxybenzyl)phenyl)-6-(hydroxymethyl)-tetrahydro-2H-pyran-3,4-diol], the inhibition at 0.3 µM on human SGLT1 (setting [1]) was determined as 74.3%; at human SGLT2 (setting [3]), 76.3%. Moreover, the results for the half-maximal inhibitory concentration (IC50) at human SGLT1 (setting [2]) and on human SGLT2 (setting [4]) were 74 nM and 3.2 nM, respectively. Besides, in the assay on SD rats (setting [5]), the response vs control in vivo at 1 mg/kg was found to be 61.6 ± 3.9%. Moreover, the response vs control in vivo at 10 mg/kg in the assay on SD rats (setting [6]) was found to be 41.3 ± 2.3%. Moreover, the “Urine Glucose Excretion (g/0-4 hr)” value is recorded as 0.026 ± 0.007 g/0-4 hr with SD rats (oral dose 1 mg/kg) and 0.089 ± 0.01 g/0-4 hr in the assay with SD rats (oral dose 10 mg/kg).
For the compound `C[C@]1(F)[C@H](O)[C@@H](O)[C@H](c2cc(Cc3ccc4c(c3)OCCO4)c(Cl)cc2O)O[C@@H]1CO` [Compound 3, (2S,3R,4R,5S,6R)-2-[4-chloro-5-(2,3-dihydro-1,4-benzodioxin-6-ylmethyl)-2-hydroxy-phenyl]-5-fluoro-6-(hydroxymethyl)-5-methyl-tetrahydropyran-3,4-diol], the values for the inhibition at 0.3 µM on human SGLT1 (setting [7]) and on human SGLT2 (setting [9]) were 45.3% and 89.4%, respectively. The IC50 on human SGLT1 (setting [8]) came out at 269 nM; against human SGLT2 (setting [10]), 2.1 nM. The response vs control in vivo at 1 mg/kg with SD rats (setting [5]) is 91.3 ± 2%. For the same compound, the response vs control in vivo at 10 mg/kg in the assay with SD rats (setting [6]) was determined as 69.3 ± 1.9%. Moreover, the “Urine Glucose Excretion (g/0-4 hr)” value with SD rats (oral dose 1 mg/kg) and in the assay with SD rats (oral dose 10 mg/kg) was 0.001 g/0-4 hr throughout.
For `CCc1ccc(Cc2cc([C@@H]3O[C@H](CO)C(F)(F)[C@H](O)[C@H]3O)c(O)c3c2OCC3)cc1` [Compound 30], the inhibition at 0.3 µM was determined as 56.7% at human SGLT1 (setting [1]) and 62.4% on human SGLT2 (setting [3]). The IC50 on human SGLT1 (setting [2]) worked out at 145 nM; against human SGLT2 (setting [4]), 7.2 nM. Moreover, in the assay on SD rats (setting [5]), the response vs control in vivo at 1 mg/kg came out at 86 ± 3.4%. Besides, the response vs control in vivo at 3 mg/kg with SD rats (Rattus norvegicus, 2 h, oral dose 3 mg/kg, n = 8, read-out: 120-min Blood Glucose AUC vs Vehicle (%)) turned out to be 80.3 ± 1.6%. Further, in the assay with SD rats (setting [6]), the response vs control in vivo at 10 mg/kg came to 72 ± 2.3%. Further, the “Urine Glucose Excretion (g/0-4 hr)” value is listed as 0.001 ± 0.0001 g/0-4 hr in the assay with SD rats (oral dose 1 mg/kg), 0.001 ± 0.0002 g/0-4 hr with SD rats (oral dose 3 mg/kg) and 0.001 ± 0.0002 g/0-4 hr in the assay on SD rats (oral dose 10 mg/kg).
Take `COc1cc(O)c([C@@H]2O[C@H](CO)[C@@](C)(F)[C@H](O)[C@H]2O)cc1Cc1ccc2c(c1)OCCO2` [Compound 6, (2S,3R,4R,5S,6R)-2-(5-((2,3-dihydrobenzo[b][1,4]dioxin-6-yl)methyl)-2-hydroxy-4-methoxyphenyl)-5-fluoro-6-(hydroxymethyl)-5-methyl-tetrahydro-2H-pyran-3,4-diol]: the figures for the inhibition at 0.3 µM at human SGLT1 (setting [7]) and on human SGLT2 (setting [9]) were 72.6% and 92.8%, respectively. Besides, the IC50 came to 37 nM on human SGLT1 (setting [8]) and 4.3 nM at human SGLT2 (setting [10]). Further, the response vs control in vivo at 1 mg/kg with SD rats (setting [5]) worked out at 71.6 ± 0.7%. Further, the response vs control in vivo at 10 mg/kg with SD rats (setting [6]) stood at 55.5 ± 1.7%. The entries for the “Urine Glucose Excretion (g/0-4 hr)” value with SD rats (oral dose 1 mg/kg) and with SD rats (oral dose 10 mg/kg) were 0.000 g/0-4 hr and 0.047 ± 0.008 g/0-4 hr, respectively.
In the case of `CCc1cc(O)c([C@@H]2O[C@H](CO)C(F)(F)[C@H](O)[C@H]2O)cc1Cc1ccc(OC)cc1` [Compound 88, (2S,3R,4R,6R)-2-(4-ethyl-2-hydroxy-5-(4-methoxybenzyl)phenyl)-5,5-difluoro-6-(hydroxymethyl)-tetrahydro-2H-pyran-3,4-diol], the inhibition at 0.3 µM came out at 77.2% at human SGLT1 (setting [1]) and 88.6% on human SGLT2 (setting [3]). Besides, the IC50 against human SGLT1 (setting [2]) was found to be 41 nM; against human SGLT2 (setting [4]) it was 1.7 nM. For the same compound, the response vs control in vivo at 1 mg/kg in the assay on SD rats (setting [5]) was found to be 65.9 ± 1.8%. Also, the response vs control in vivo at 10 mg/kg in the assay with SD rats (setting [6]) stood at 41.6 ± 1.1%. Also, the “Urine Glucose Excretion (g/0-4 hr)” value came out at 0.046 ± 0.014 g/0-4 hr with SD rats (oral dose 1 mg/kg) and 0.349 ± 0.023 g/0-4 hr in the assay on SD rats (oral dose 10 mg/kg).
For the compound `Cc1cc(O)c([C@@H]2O[C@H](CO)C(F)(F)[C@H](O)[C@H]2O)cc1Cc1cc2ccccc2s1` [Compound 25, (2S,3R,4R,6R)-2-(5-(benzo[b]thiophen-2-ylmethyl)-2-hydroxy-4-methylphenyl)-5,5-difluoro-6-(hydroxymethyl)tetrahydro-2H-pyran-3,4-diol], the IC50 against human SGLT1 (setting [2]) was found to be 56 nM; on human SGLT2 (setting [4]), 3.8 nM. Besides, in the assay with SD rats (setting [5]), the response vs control in vivo at 1 mg/kg stood at 67.8 ± 1.7%. For the same compound, the response vs control in vivo at 10 mg/kg in the assay on SD rats (setting [6]) is 36.5 ± 1.1%. Further, the “Urine Glucose Excretion (g/0-4 hr)” value with SD rats (oral dose 1 mg/kg) is given as 0.001 g/0-4 hr; in the assay with SD rats (oral dose 10 mg/kg) it was 0.499 ± 0.04 g/0-4 hr.
